Results from ChEMBL document CHEMBL6114965, “Novel dual-targeting PROTAC degraders of GSK-3β and CDK5: A promising approach for pancreatic cancer treatment” (Bioorg Med Chem, 2025).
The source made the active and inactive calls. The rule behind the calls is not given here.

How the values were obtained:
[1] = Half-life in mouse at 5 mg/kg, po; assay type: ADME, organism-based; conditions: in vivo
[2] = target: T1, Protein cereblon/Glycogen synthase kinase-3 beta (Homo sapiens, UniProt P49841+Q96SW2); experiment: PROTAC activity at CRBN/GSK3beta in human PANC-1 cells assessed as induction of GSK3beta degradation at 0.5 to 2.8 uM incubated for 10 hrs in presence of MG132 by Western blot analysis; assay type: cell-based; conditions: dose 0.5-2.8 µM
Target sequence in this assay (P49841 whole entry, looked up): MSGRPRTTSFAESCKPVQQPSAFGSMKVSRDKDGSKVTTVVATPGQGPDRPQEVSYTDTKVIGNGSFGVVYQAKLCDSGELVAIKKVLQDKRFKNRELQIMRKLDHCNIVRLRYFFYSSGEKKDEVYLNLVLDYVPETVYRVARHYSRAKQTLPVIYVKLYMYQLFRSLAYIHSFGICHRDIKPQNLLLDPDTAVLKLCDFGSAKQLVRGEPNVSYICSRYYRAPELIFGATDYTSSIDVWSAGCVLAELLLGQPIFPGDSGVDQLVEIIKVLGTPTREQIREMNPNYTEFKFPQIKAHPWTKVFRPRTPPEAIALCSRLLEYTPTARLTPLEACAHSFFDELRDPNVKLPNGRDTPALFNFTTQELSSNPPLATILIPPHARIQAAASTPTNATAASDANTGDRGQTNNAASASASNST
Target sequence in this assay (Q96SW2 whole entry, looked up): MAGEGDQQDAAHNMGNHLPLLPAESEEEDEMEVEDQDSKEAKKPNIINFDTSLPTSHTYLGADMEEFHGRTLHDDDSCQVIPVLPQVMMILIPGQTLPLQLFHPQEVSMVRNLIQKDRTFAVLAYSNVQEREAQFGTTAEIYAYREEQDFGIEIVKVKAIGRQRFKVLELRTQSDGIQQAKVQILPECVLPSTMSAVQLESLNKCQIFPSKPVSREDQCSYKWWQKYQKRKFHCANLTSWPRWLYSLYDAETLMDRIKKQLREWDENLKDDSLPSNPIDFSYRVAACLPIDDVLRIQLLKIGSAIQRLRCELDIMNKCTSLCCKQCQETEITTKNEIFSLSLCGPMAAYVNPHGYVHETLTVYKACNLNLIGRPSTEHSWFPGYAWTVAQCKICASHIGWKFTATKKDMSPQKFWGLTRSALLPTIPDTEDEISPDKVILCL

[3] = target: T1, Protein cereblon/Glycogen synthase kinase-3 beta; experiment: PROTAC activity at CRBN/GSK3beta in human PANC-1 cells assessed as induction of GSK3beta degradation by measuring maximal efficacy by target engagement binding based cell-ELISA relative to control
Target sequence in this assay (P49841 whole entry, looked up): as the sequence (P49841 whole entry, looked up) above
Target sequence in this assay (Q96SW2 whole entry, looked up): as the sequence (Q96SW2 whole entry, looked up) above

Cytochrome P450 2C19 = Cytochrome P450 2C19 (Homo sapiens, UniProt P33261); experiment: Inhibition of CYP2C19 (unknown origin) using s-mephenytoin as substrate […]; assay type: ADME
Sequence of Cytochrome P450 2C19 (P33261 whole entry): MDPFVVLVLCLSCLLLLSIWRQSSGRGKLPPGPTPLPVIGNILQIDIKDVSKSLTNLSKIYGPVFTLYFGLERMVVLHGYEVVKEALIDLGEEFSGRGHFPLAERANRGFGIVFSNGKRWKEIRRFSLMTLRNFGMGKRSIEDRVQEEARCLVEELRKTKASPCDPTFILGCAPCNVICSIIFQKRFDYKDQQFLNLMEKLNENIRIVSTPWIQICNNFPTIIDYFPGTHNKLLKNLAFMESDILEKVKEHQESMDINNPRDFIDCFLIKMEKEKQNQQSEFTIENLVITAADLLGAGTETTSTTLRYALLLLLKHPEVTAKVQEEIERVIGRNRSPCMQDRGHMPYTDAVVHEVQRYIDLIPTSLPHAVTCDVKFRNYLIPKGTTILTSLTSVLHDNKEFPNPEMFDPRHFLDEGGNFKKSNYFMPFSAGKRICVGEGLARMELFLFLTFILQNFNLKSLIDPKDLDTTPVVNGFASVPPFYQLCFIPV

[4] = AUC in mouse at 5 mg/kg, iv; assay type: ADME, organism-based; conditions: in vivo
BXPC-3 = experiment: Antiproliferative activity against human BXPC-3 cells assessed as inhibition of cell viability by MTT assay; assay type: functional, cell-based
[5] = Permeability of compound in PBS at pH 7.4 at 500 uM incubated for 4 hrs by UV spectrophotometry based PAMPA; assay type: ADME; conditions: read-out: permeability
[6] = Metabolic stability in pooled human liver microsomes assessed as half-life at 100 uM measured upto 120 mins by LC-MS/MS analysis; assay type: ADME, Microsome
[7] = target: T2, Protein cereblon/Cyclin-dependent kinase 5 (Homo sapiens, UniProt Q00535+Q96SW2); experiment: PROTAC activity at CRBN/CDK5 in human PANC-1 cells assessed as induction of CDK5 degradation at 0.5 to 2.8 uM incubated for 10 hrs in presence of MG132 by Western blot analysis; assay type: cell-based; conditions: dose 0.5-2.8 µM
Target sequence in this assay (Q00535 whole entry, looked up): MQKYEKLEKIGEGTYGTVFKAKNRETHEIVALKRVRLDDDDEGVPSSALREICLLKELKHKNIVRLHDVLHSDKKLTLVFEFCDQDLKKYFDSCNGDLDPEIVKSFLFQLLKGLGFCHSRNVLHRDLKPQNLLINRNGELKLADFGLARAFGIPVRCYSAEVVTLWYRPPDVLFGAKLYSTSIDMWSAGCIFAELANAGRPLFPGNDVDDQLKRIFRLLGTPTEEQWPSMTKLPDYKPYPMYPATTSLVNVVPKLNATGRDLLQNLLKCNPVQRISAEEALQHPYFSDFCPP
Target sequence in this assay (Q96SW2 whole entry, looked up): as the sequence (Q96SW2 whole entry, looked up) above

[8] = target: T2, Protein cereblon/Cyclin-dependent kinase 5; experiment: PROTAC activity at CRBN/CDK5 in human PANC-1 cells assessed as induction of CDK5 degradation by target engagement binding based cell-ELISA
Target sequence in this assay (Q00535 whole entry): as the sequence (Q00535 whole entry, looked up) above
Target sequence in this assay (Q96SW2 whole entry): as the sequence (Q96SW2 whole entry, looked up) above

[9] = Oral bioavailability in mouse at 5 mg/kg; assay type: ADME, organism-based; conditions: in vivo
[10] = Half-life in mouse at 5 mg/kg, iv; assay type: ADME, organism-based; conditions: in vivo
[11] = target: T2, Protein cereblon/Cyclin-dependent kinase 5; experiment: PROTAC activity at CRBN/CDK5 in human PANC-1 cells assessed as induction of CDK5 degradation at 1 to 2.8 uM incubated for 10 hrs by Western blot analysis; assay type: cell-based; conditions: dose 1-2.8 µM
Target sequence in this assay (Q00535 whole entry, looked up): as the sequence (Q00535 whole entry, looked up) above
Target sequence in this assay (Q96SW2 whole entry, looked up): as the sequence (Q96SW2 whole entry, looked up) above

Cytochrome P450 2C8 = target: T3, Cytochrome P450 2C8 (Homo sapiens, UniProt P10632); experiment: Inhibition of CYP2C8 (unknown origin) using amodiaquine as substrate […]; assay type: ADME
T3 sequence (P10632 whole entry): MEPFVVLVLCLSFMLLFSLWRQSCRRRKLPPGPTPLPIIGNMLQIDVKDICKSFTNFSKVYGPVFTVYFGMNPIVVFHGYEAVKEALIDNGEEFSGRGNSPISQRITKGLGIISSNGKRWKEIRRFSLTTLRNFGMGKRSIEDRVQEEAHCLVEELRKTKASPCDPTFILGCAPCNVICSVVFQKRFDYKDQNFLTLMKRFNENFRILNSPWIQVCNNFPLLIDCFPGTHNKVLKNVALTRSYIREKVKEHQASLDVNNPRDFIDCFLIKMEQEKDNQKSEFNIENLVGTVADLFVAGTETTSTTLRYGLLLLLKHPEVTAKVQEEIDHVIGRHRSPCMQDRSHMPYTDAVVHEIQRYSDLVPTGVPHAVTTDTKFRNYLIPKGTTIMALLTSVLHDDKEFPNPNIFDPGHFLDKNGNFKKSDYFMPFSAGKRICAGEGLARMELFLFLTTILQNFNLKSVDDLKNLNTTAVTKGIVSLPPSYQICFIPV

MIA PaCa-2 = experiment: Antiproliferative activity against human MIA PaCa-2 cells assessed as inhibition of cell viability by MTT assay; assay type: functional, cell-based
Cytochrome P450 3A4 [12] = target: T4, Cytochrome P450 3A4 (Homo sapiens, UniProt P08684); experiment: Inhibition of CYP3A4 (unknown origin) using midazolam as substrate […]; assay type: ADME
T4 sequence (P08684 whole entry): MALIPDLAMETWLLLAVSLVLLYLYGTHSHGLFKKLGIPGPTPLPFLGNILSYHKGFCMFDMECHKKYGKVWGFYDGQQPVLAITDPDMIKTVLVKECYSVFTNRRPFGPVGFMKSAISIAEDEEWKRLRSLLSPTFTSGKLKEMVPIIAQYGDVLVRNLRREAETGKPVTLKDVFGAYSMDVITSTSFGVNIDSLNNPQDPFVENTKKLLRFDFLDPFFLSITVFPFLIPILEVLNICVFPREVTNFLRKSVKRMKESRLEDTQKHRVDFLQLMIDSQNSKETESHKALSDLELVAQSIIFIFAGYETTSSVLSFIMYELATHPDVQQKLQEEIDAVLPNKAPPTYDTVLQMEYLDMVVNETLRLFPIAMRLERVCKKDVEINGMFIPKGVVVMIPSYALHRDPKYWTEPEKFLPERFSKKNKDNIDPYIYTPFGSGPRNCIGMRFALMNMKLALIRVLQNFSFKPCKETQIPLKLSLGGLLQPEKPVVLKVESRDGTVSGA

Cytochrome P450 1A2 = target: T5, Cytochrome P450 1A2 (Homo sapiens, UniProt P05177); experiment: Inhibition of CYP1A2 (unknown origin) using phenacetin as substrate […]; assay type: ADME
T5 sequence (P05177 whole entry): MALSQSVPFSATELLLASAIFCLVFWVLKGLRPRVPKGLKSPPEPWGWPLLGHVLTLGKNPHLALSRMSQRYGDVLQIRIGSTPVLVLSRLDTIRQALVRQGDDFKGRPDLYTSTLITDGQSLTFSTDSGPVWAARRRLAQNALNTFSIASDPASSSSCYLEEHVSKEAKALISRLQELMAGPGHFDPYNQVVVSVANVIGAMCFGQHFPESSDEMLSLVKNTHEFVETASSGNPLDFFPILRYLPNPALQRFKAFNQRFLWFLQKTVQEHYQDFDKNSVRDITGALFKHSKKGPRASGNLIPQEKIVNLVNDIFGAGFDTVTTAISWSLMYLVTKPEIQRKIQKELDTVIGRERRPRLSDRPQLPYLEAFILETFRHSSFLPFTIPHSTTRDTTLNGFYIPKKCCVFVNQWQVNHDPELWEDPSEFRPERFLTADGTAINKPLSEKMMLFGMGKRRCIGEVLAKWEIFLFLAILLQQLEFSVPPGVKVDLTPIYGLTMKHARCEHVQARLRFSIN

[13] = Bioavailability in mouse at 5 mg/kg, […]; assay type: ADME, organism-based; conditions: in vivo
[14] = Cytotoxicity against human A549 cells; assay type: toxicity, cell-based
[15] = target: T1, Protein cereblon/Glycogen synthase kinase-3 beta; experiment: PROTAC activity at CRBN/GSK3beta in human PANC-1 cells assessed as induction of GSK3beta degradation by target engagement binding based cell-ELISA
Target sequence in this assay (P49841 whole entry): as the sequence (P49841 whole entry, looked up) above
Target sequence in this assay (Q96SW2 whole entry): as the sequence (Q96SW2 whole entry, looked up) above

[16] = Observed clearance in mouse at 5 mg/kg, po; assay type: ADME, organism-based; conditions: in vivo
ASPC1 = experiment: Antiproliferative activity against human ASPC1 cells assessed as inhibition of cell viability by MTT assay; assay type: functional, cell-based
PANC-1 = experiment: Antiproliferative activity against human PANC-1 cells assessed as inhibition of cell viability by MTT assay; assay type: functional, cell-based
[17] = Cmax in mouse at 5 mg/kg, po; assay type: ADME, organism-based; conditions: in vivo
Cytochrome P450 3A4 [18] = target: T4, Cytochrome P450 3A4; experiment: Inhibition of CYP3A4 (unknown origin) using testosterone as substrate […]; assay type: ADME
[19] = Cmax in mouse at 5 mg/kg, iv; assay type: ADME, organism-based; conditions: in vivo
[20] = target: T2, Protein cereblon/Cyclin-dependent kinase 5; experiment: PROTAC activity at CRBN/CDK5 in human PANC-1 cells assessed as induction of CDK5 degradation by measuring maximal efficacy by target engagement binding based cell-ELISA relative to control
Target sequence in this assay (Q00535 whole entry, looked up): as the sequence (Q00535 whole entry, looked up) above
Target sequence in this assay (Q96SW2 whole entry, looked up): as the sequence (Q96SW2 whole entry, looked up) above

[21] = Tmax in mouse at 5 mg/kg, iv; assay type: ADME, organism-based; conditions: in vivo
[22] = Tmax in mouse at 5 mg/kg, po; assay type: ADME, organism-based; conditions: in vivo
[23] = Cytotoxicity against human HepG2 cells; assay type: toxicity, cell-based
Cytochrome P450 2C9 = Cytochrome P450 2C9 (Homo sapiens, UniProt P11712); experiment: Inhibition of CYP2C9 (unknown origin) using diclofenac as substrate […]; assay type: ADME
Sequence of Cytochrome P450 2C9 (P11712 whole entry): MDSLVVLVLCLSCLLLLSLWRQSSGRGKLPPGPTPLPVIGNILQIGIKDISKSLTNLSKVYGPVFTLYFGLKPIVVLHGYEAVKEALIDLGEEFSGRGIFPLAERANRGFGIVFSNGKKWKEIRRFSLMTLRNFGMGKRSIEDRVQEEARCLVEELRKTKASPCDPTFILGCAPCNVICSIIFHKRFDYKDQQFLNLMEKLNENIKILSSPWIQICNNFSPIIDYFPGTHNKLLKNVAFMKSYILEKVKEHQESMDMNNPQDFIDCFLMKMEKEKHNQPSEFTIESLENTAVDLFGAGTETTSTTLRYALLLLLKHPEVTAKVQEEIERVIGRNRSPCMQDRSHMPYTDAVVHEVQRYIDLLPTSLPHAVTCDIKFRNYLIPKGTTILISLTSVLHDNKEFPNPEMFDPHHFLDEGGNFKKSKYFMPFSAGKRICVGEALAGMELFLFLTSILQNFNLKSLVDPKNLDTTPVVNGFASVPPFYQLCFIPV

[24] = target: T1, Protein cereblon/Glycogen synthase kinase-3 beta; experiment: PROTAC activity at CRBN/GSK3beta in human PANC-1 cells assessed as induction of GSK3beta degradation at 1 to 2.8 uM incubated for 10 hrs by Western blot analysis; assay type: cell-based; conditions: dose 1-2.8 µM
Target sequence in this assay (P49841 whole entry, looked up): as the sequence (P49841 whole entry, looked up) above
Target sequence in this assay (Q96SW2 whole entry, looked up): as the sequence (Q96SW2 whole entry, looked up) above

Cytochrome P450 2B6 = target: T6, Cytochrome P450 2B6 (Homo sapiens, UniProt P20813); experiment: Inhibition of CYP2B6 (unknown origin) using bupropion as substrate […]; assay type: ADME
T6 sequence (P20813 whole entry): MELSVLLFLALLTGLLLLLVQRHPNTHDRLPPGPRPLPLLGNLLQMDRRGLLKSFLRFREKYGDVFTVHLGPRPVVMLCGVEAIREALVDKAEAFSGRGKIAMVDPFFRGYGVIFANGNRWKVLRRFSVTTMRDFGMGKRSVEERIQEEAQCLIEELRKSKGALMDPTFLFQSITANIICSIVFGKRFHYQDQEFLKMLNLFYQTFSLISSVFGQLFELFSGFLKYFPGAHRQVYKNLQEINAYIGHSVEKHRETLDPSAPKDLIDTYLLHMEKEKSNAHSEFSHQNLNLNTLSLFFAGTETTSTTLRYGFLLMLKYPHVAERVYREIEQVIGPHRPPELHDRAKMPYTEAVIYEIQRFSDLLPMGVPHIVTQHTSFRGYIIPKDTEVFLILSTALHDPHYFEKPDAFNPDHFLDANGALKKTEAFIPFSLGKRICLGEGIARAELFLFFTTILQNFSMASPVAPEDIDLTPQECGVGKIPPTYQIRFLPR

Cytochrome P450 2D6 = Cytochrome P450 2D6 (Homo sapiens, UniProt P10635); experiment: Inhibition of CYP2D6 (unknown origin) using dextromethorphan as substrate […]; assay type: ADME
Sequence of Cytochrome P450 2D6 (P10635 whole entry): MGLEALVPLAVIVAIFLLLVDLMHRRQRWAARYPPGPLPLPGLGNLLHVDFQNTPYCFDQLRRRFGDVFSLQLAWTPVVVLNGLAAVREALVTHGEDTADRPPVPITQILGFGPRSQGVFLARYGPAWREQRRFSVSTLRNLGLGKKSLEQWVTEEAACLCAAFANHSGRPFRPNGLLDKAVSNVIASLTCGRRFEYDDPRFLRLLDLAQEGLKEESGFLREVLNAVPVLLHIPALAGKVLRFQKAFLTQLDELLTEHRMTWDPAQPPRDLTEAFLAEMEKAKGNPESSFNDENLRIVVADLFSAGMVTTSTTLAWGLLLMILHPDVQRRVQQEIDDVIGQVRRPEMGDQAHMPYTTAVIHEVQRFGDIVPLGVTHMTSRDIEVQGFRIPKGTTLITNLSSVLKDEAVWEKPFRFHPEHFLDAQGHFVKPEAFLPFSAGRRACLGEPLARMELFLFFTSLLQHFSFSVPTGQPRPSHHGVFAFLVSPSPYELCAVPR

[25] = AUC in mouse at 5 mg/kg, po; assay type: ADME, organism-based; conditions: in vivo

- half-life [1]: 4 h
- Activity [2]: inactive
- Emax [3]: 90%
- IC50 (Cytochrome P450 2C19): 46.2 µM
- AUC [4]: 3700 ng·h/mL
- IC50 (BXPC-3): 2.95 µM
- Papp at 4 h, 500 µM [5]: 79.9 ×10⁻⁶ cm/s
- half-life at 100 µM [6]: 0.934 h
- Activity [7]: inactive
- DC50 [8]: 0.048 µM
- F [9]: 15%
- half-life [10]: 6 h
- Activity [11]: Active
- IC50 (Cytochrome P450 2C8): > 100 µM
- IC50 (MIA PaCa-2): 2.16 µM
- IC50 (Cytochrome P450 3A4 [12]): 39.2 µM
- IC50 (Cytochrome P450 1A2): 55.2 µM
- bioavailability [13]: 35%
- DC50 [15]: 0.042 µM
- CL/F [16]: 90 mL/min/kg
- IC50 (ASPC1): 1.96 µM
- IC50 (PANC-1): 1.81 µM
- Cmax [17]: 761 ng/mL
- IC50 (Cytochrome P450 3A4 [18]): 25.3 µM
- Cmax [19]: 961 ng/mL
- Emax [20]: 88%
- Tmax [21]: 4 h
- Tmax [22]: 2 h
- IC50 (Cytochrome P450 2C9): 33.3 µM
- Activity [24]: Active
- IC50 (Cytochrome P450 2B6): 45.3 µM
- IC50 (Cytochrome P450 2D6): 45.5 µM
- AUC [25]: 1550 ng·h/mL
SMILES: O=C1CCC(N2C(=O)c3cccc(NCCCCCn4cc(CN5CCN(CCCn6cc(C7=C(c8c[nH]c9ccccc89)C(=O)NC7=O)c7ccccc76)CC5)nn4)c3C2=O)C(=O)N1 (stereo not given)
- CC50 [14]: 8.23 µM
- CC50 [23]: 9.05 µM
